20 molecules from PubChem BioAssay (NCI) can be followed below.

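Values below derive from 48-hour exposures of cells grown in 96-well plates, with endpoints linearly interpolated between the two concentrations bracketing the appropriate inhibition level. TGI marks complete inhibition of growth.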

What all share (experiment): NCI anticancer screen, dose series, 48 h
Experiment [1] concerns SF-295 CNS.
Experiment [2] has as its system DU-145 prostate.
For experiment [3], the system named is SNB-19 CNS.
In experiment [4] the test system is IGROV1 ovarian.
The test system of experiment [5] is HT29 colon.
In experiment [6] the test system is SN12C renal.
The test system of experiment [7] is EKVX NSCLC.
Experiment [8] relates to OVCAR-8 ovarian.
The subject of experiment [9] is HS 578T breast.
Experiment [10] relates to HCC-2998 colon.

Consider `CC1(C)C(c2ccccc2)=[N+]([O-])C(C)(C)N1O`, for which the TGI in [1], in experiment [2], in experiment [3], in [4], in experiment [5] and in experiment [6] was greater than 10 µM throughout. The TGI in [7], in [8], in [9] and in [10] was greater than 10 µM in each case.
As for `O=C1CCC(=Nc2ccc(Cl)cc2)N1C(=O)COc1ccc(OCC(=O)N2C(=O)CSC2=Nc2ccc(Cl)cc2)cc1`, the TGI in experiment [1], in experiment [2], in experiment [3], in experiment [4], in experiment [5] and in [6] was greater than 100 µM each time. Moreover, the TGI in [7], in experiment [8], in [9] and in [10] was greater than 100 µM each time.
Regarding `Cc1cc(-c2nc3c(O)cccc3s2)ccc1N`, the TGI in experiment [1] is 72.2 µM; in [2] it was greater than 100 µM; in experiment [3] it was 41 µM; in experiment [4], 53.8 µM; in [5], 53.3 µM; in [6], 90.7 µM. Moreover, the TGI was 52.9 µM in experiment [7], 54.4 µM in [8], 40.8 µM in experiment [9] and greater than 100 µM in experiment [10].
As to `Cc1ccccc1OC(C)C(=O)NN1C(=O)CC(=O)N(c2ccc(Cl)cc2)C1=S` (stereo not given), the TGI in [1], in experiment [2], in experiment [3], in experiment [4], in experiment [5] and in experiment [6] was greater than 100 µM throughout. For the same molecule, the TGI is greater than 100 µM in experiment [7], greater than 100 µM in experiment [8], greater than 100 µM in experiment [9] and 71.9 µM in experiment [10].
`CSCCC(NCc1c(O)ccc2c(-c3ccccc3)cc(=O)oc12)C(=O)O` (stereo not given): the TGI in [1], in experiment [2], in [3], in experiment [4], in [5] and in [6] was greater than 100 µM each time. The TGI in [7], in experiment [8], in experiment [9] and in experiment [10] was greater than 100 µM each time.
For `Cc1ccc(S(=O)(=O)Oc2cc(N)c3c(n2)CCC3)cc1`, the TGI in experiment [1], in [2], in experiment [3], in experiment [4], in [5] and in experiment [6] was greater than 100 µM in each case. Further, the TGI in experiment [7], in [8], in experiment [9] and in experiment [10] was greater than 100 µM throughout.
Regarding `COc1cc2c(cc1OC)C1c3ccccc3CCN1CC2` (stereo not given), the TGI in experiment [1], in experiment [2], in experiment [3], in experiment [4], in experiment [5] and in experiment [6] was greater than 100 µM in each case. Moreover, the TGI in [7], in [8], in experiment [9] and in [10] was greater than 100 µM each time.
For the molecule `O=c1cc(/C=C/c2ccc(O)c(O)c2)oc(/C=C/c2ccc(O)c(O)c2)c1`, the TGI in experiment [1] was determined as 22.7 µM; in experiment [2] it was 12.8 µM; in experiment [3] it was 18.2 µM; in experiment [4] it was 16.6 µM; in [5] it was 25.3 µM; in experiment [6] it was 16 µM. Also, the TGI in experiment [7] was 18.1 µM; in [8], 22.4 µM; in experiment [9], 65.9 µM; in [10], 6.92 µM.
In the case of `O=C(O)C1CC(c2ccc(F)cc2)=Nc2ccc(F)cc2S1` (stereo not given), the TGI in experiment [1], in [2], in [3], in [4], in [5] and in [6] was greater than 100 µM in each case. For the same molecule, the TGI in experiment [7], in experiment [8], in experiment [9] and in [10] was greater than 100 µM throughout.
Regarding `O=C1/C(=C/c2ccccc2S)N=C(c2ccccc2)N1c1nc2ccc(Sc3ccccc3)cc2[nH]1`, the TGI is 72.5 µM in [1]; greater than 100 µM in [2]; greater than 100 µM in [3]; greater than 100 µM in experiment [4]; 43.1 µM in [5]; 99.1 µM in experiment [6]. Further, the TGI in [7] is greater than 100 µM; in experiment [8] it was greater than 100 µM; in experiment [9], 72.6 µM; in experiment [10], 37.6 µM.
Turning to `CCOC1CC(=O)c2c(Br)sc(Br)c21` (stereo not given), the TGI is 77.4 µM in [1]; 32.5 µM in experiment [2]; 51.9 µM in experiment [3]; 31 µM in experiment [4]; 44 µM in [5]; 58.4 µM in experiment [6]. For the same molecule, the TGI came to 42.7 µM in experiment [7], 38.5 µM in experiment [8], 90.6 µM in experiment [9] and 36.9 µM in [10].
Take `O=C(Nc1cccc2cnccc12)c1cc2c(cc1Cl)Sc1nccn1S2(=O)=O`: the TGI in experiment [1] is 43.5 µM; in experiment [2], 55.9 µM; in experiment [3], 65.3 µM; in [4] it was 45.8 µM; in experiment [5] it was 48.3 µM; in [6], 30.5 µM. The TGI in experiment [7] is 52.8 µM; in experiment [8] it was 62.7 µM; in experiment [9], 73.7 µM; in experiment [10], 29.9 µM.
`O=C1NCCCc2nonc21`: the TGI in experiment [1], in experiment [2], in experiment [3], in [4], in experiment [5] and in experiment [6] was greater than 100 µM each time. Further, the TGI in [7], in experiment [8], in experiment [9] and in [10] was greater than 100 µM in each case.
Regarding `CC(=O)OC(C)c1cc2c(s1)C(=O)c1sccc1C2=O` (stereo not given), the TGI in experiment [1] stood at 2.56 µM; in experiment [2], 0.56 µM; in [3], 2.82 µM; in [4], 4.19 µM; in experiment [5], 6.18 µM; in experiment [6] it was 2.26 µM. For the same molecule, the TGI in [7] came to 3.7 µM; in [8], 4.66 µM; in [9] it was 7.36 µM; in experiment [10], 3.54 µM.
For the molecule `c1ccc2c(c1)[nH]c1nc3cc(-c4ccc5nc6c(nc5c4)[nH]c4ccccc46)ccc3nc12`, the TGI in experiment [1], in [2], in experiment [3], in experiment [4], in [5] and in experiment [6] was greater than 100 µM in each case. Moreover, the TGI in experiment [7], in experiment [8], in experiment [9] and in experiment [10] was greater than 100 µM each time.
Take `CCCCn1c2c(n(CCCC)c1=S)-c1c(n(CCCC)c(=S)n1CCCC)S[Se][Se]S2`: the TGI in experiment [1] was 30.5 µM; in experiment [2], greater than 60.4 µM; in experiment [3], greater than 76.4 µM; in [4], 9.16 µM; in experiment [5], 32.5 µM; in experiment [6], 99.1 µM. Also, the TGI in experiment [7] came to 24.3 µM; in experiment [8] it was 29.9 µM; in experiment [9], 44.2 µM; in experiment [10] it was 61.6 µM.
Take `O=c1c2ncn(C3CC(O)C(CO)O3)c2nnn1Cc1ccccc1[N+](=O)[O-]` (stereo not given): the TGI in experiment [1], in experiment [2], in [3], in [4], in experiment [5] and in [6] was greater than 100 µM throughout. The TGI in [7], in experiment [8], in experiment [9] and in experiment [10] was greater than 100 µM in each case.
As for `O=C1C(c2c(O)[nH]c3ccc(S(=O)(=O)O)cc23)=Nc2ccccc21`, the TGI in [1], in experiment [2], in [3], in experiment [4], in experiment [5] and in experiment [6] was greater than 100 µM each time. Also, the TGI in [7], in experiment [8], in [9] and in experiment [10] was greater than 100 µM throughout.
For the molecule `O=C(O)[C@@H]1C[C@@H](O)CN1C(=O)OCc1ccccc1`, the TGI in experiment [1], in experiment [2], in [3], in [4], in experiment [5] and in experiment [6] was greater than 100 µM each time. The TGI in [7], in experiment [8], in [9] and in [10] was greater than 100 µM each time.
Regarding `NC(CSCc1ccccc1)C(=O)O` (stereo not given), the TGI in [1], in experiment [2], in experiment [3], in [4], in experiment [5] and in [6] was greater than 100 µM each time. In addition, the TGI in experiment [7], in experiment [8], in [9] and in experiment [10] was greater than 100 µM each time.
